Common to all, as to assay: inhibition of tumour cell growth, NCI panel, 48 h
The subject of test [1] is A498 renal.
In test [2] the test system is ACHN renal.
Test [3] deals with HOP-62 NSCLC.
The test system of test [4] is HOP-92 NSCLC.
Test [5] deals with HT29 colon.
Test [6] has as its system LOX IMVI melanoma.
The subject of test [7] is MALME-3M melanoma.
In test [8] the test system is MDA-MB-435.
In test [9] the test system is SW-620 colon.
The test system of test [10] is T-47D breast.

We go through 15 compounds from PubChem BioAssay (NCI).

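Where inhibition never reached the appropriate level, the endpoint shown equals the highest concentration tested. Otherwise, values were interpolated linearly from a five-concentration, 48-hour dose response in 96-well plates. Here, GI50 denotes the concentration required for 50% inhibition of growth. TGI is the concentration that stops growth completely.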 Where only a bound is given, the exact number is not on record here.

On to `Cn1cccc1-c1cc(-c2ccc(Br)cc2)[nH]c(=O)c1C#N`, for which the GI50 is 54.4 µM in [1]; above 100 µM in test [2]; above 100 µM in test [3]; 27.8 µM in [4]; above 100 µM in test [5]; above 100 µM in test [6]. For the same compound, the GI50 in [7], in [8], in test [9] and in test [10] was above 100 µM throughout. The TGI in test [1], in test [2], in test [3], in test [4], in test [5] and in test [6] was above 100 µM in each case. Besides, the TGI in [7], in [8], in test [9] and in [10] was above 100 µM in each case.

For the compound `COc1ccccc1CNCCCN1C(=O)c2ccc3c4c(ccc(c24)C1=O)C(=O)N(CCCN)C3=O`, the GI50 in [1] was 1.57 µM; in test [2], 1.58 µM; in test [3], 1.42 µM; in test [4], 2.4 µM; in test [5], 1.42 µM; in test [6] it was 0.685 µM. The GI50 in test [7] is 0.36 µM; in [8] it was 0.196 µM; in [9] it was 0.589 µM; in [10] it was 1.22 µM. Further, the TGI in [1] amounted to 3.04 µM; in test [2], 4.51 µM; in test [3] it was 2.95 µM; in test [4] it was 5.65 µM; in [5] it was 3.75 µM; in test [6], 2.87 µM. In addition, the TGI in [7] came to 1.07 µM; in [8], 0.413 µM; in [9] it was 2.33 µM; in test [10] it was 3.31 µM.

As to `N#CSCc1ccc(Cl)c(CSC#N)c1`, the GI50 in [1] is 0.273 µM; in [2], 0.0865 µM; in [3], 7.25 µM; in test [4], 0.25 µM; in [5], 0.0423 µM; in test [6] it was 0.151 µM. Further, the GI50 in test [7] is 9.8 µM; in test [8] it was 0.133 µM; in test [9], 0.0395 µM; in test [10] it was 15.7 µM. For the same compound, the TGI in test [1] was 4.04 µM; in test [2], 22.6 µM; in [3], above 66.9 µM; in test [4], 6.51 µM; in test [5], above 37.6 µM; in [6], 13.6 µM. Besides, the TGI in test [7] was determined as 37.8 µM; in [8], 3.81 µM; in [9] it was 15.7 µM; in test [10] it was 51.8 µM.

`O=[N+]([O-])c1ccc(N2CCC(CCCC3CCN(c4ccc([N+](=O)[O-])cc4[N+](=O)[O-])CC3)CC2)c([N+](=O)[O-])c1`: the TGI was 31.8 µM in [1]; 35.4 µM in [2]; 29.5 µM in test [3]; 26.4 µM in [4]; 22.2 µM in [5]; 30.2 µM in [6]. Moreover, the TGI came to 42.4 µM in test [7], 26.8 µM in test [8], 57.4 µM in test [9] and 29.2 µM in test [10].

As for `Nc1ccccc1C#C/C=C\C#Cc1cccc(O)c1`, the GI50 in [1] is 11 µM; in [2], 2.64 µM; in test [3], 2.63 µM; in [4], 11.9 µM; in test [5], 11.4 µM; in test [6] it was 0.579 µM. The GI50 in test [7] was 11.3 µM; in test [8], 1.5 µM; in test [9], 3.12 µM; in [10], 7.3 µM. The TGI was 35.9 µM in [1]; 18.8 µM in test [2]; 12.1 µM in test [3]; above 51.2 µM in test [4]; 41.7 µM in test [5]; 10.8 µM in [6]. The TGI was above 43.4 µM in test [7], 4.12 µM in [8], 15.2 µM in test [9] and above 60.8 µM in [10].

Take `O=C(Nc1ccc(Oc2cccc(F)c2)c(Cl)c1)c1cnccn1`: the GI50 in test [1] was 3.77 µM; in [2], 3.3 µM; in test [3] it was 0.973 µM; in test [4], 1.44 µM; in test [5] it was 0.234 µM; in test [6], 1.69 µM. In addition, the GI50 in test [7] is 3.03 µM; in test [8], 0.149 µM; in test [9] it was 0.366 µM; in test [10], 1.33 µM. In addition, the TGI is 43.3 µM in test [1]; above 50 µM in [2]; above 50 µM in [3]; above 50 µM in test [4]; above 50 µM in test [5]; above 50 µM in test [6]. For the same compound, the TGI in test [7] was above 50 µM; in test [8], 0.683 µM; in [9], above 50 µM; in [10] it was above 50 µM.

`Nc1c(C(=O)c2cccc(C#CCO)c2)cnn1-c1ccc(F)cc1`: the GI50 in test [1] is above 18.5 µM; in [2] it was above 25 µM; in test [3], above 25 µM; in [4], above 13.2 µM; in test [5], above 25 µM; in test [6] it was above 25 µM. The GI50 in test [7], in test [8], in test [9] and in test [10] was above 25 µM throughout. Further, the TGI in test [1], in [2], in test [3], in test [4], in test [5] and in test [6] was above 25 µM in each case. The TGI in [7], in [8], in test [9] and in test [10] was above 25 µM throughout.

Consider `COC(=N)c1c(N)[n+]([O-])c2ccc(F)cc2[n+]1[O-]`, for which the GI50 in test [1] is 40.4 µM; in test [2], above 100 µM; in test [3], above 100 µM; in test [4] it was 78.8 µM; in [5], above 100 µM; in test [6], above 100 µM. In addition, the GI50 is 66.3 µM in [7], above 100 µM in test [8], above 100 µM in test [9] and above 100 µM in test [10]. Further, the TGI in test [1], in [2], in test [3], in test [4], in test [5] and in [6] was above 100 µM throughout. Moreover, the TGI in [7], in test [8], in [9] and in test [10] was above 100 µM each time.

For the compound `N#Cc1nc2c(S(=O)(=O)c3ccc(Cl)cc3)c(N)n(CCCN3CCOCC3)c2nc1C#N`, the GI50 in test [1] was 2.6 µM; in test [2] it was 3.26 µM; in test [3], 15.2 µM; in test [4], 2.72 µM; in test [5], 5.96 µM; in test [6], 4.76 µM. Besides, the GI50 in test [7] was 3.55 µM; in test [8] it was 2.21 µM; in test [9], 2.99 µM; in test [10], 2.95 µM. In addition, the TGI in [1] was 14.6 µM; in test [2] it was 15.3 µM; in test [3], 51.3 µM; in test [4], 30.2 µM; in test [5] it was above 100 µM; in test [6] it was 17.3 µM. Moreover, the TGI in test [7] worked out at 18.1 µM; in [8], 5.82 µM; in [9], 14.1 µM; in [10] it was 16.6 µM.

As for `CCc1ccc2c(c1)C(=O)c1c-2n(CCCN=[N+]=[N-])c(=O)c2cc(OC)c(OC)cc12`, the GI50 in [1] was 25.8 µM; in test [2], 42.2 µM; in [3], 56.2 µM; in test [4], 23.8 µM; in test [5], above 100 µM; in test [6], above 100 µM. For the same compound, the GI50 in test [7], in [8], in test [9] and in test [10] was above 100 µM in each case. The TGI in [1] is 84.5 µM; in test [2] it was above 100 µM; in test [3] it was above 100 µM; in [4], 94.8 µM; in test [5], above 100 µM; in test [6], above 100 µM. In addition, the TGI in [7], in test [8], in [9] and in test [10] was above 100 µM each time.

For `COC(=O)c1cc2ccccc2c2c3c(ccc12)OCO3`, the GI50 in test [1] was 15.5 µM; in test [2] it was 75.3 µM; in [3], 26.2 µM; in test [4], 17.4 µM; in test [5], 33.7 µM; in [6] it was 772 µM. Moreover, the GI50 is 76.6 µM in test [7], 531 µM in test [8], 900 µM in test [9] and 44.2 µM in test [10]. Moreover, the TGI is 129 µM in test [1]; above 1000 µM in test [2]; 91.7 µM in [3]; 73 µM in [4]; above 1000 µM in test [5]; above 1000 µM in test [6]. Moreover, the TGI is 483 µM in test [7], above 1000 µM in test [8], above 1000 µM in test [9] and above 1000 µM in [10].

In the case of `COC(=O)C1=C(C)NC(C)=C(C(=O)OCC(C)C)C1c1ccccc1[N+](=O)[O-]` (stereo not given), the GI50 was 10.7 µM in [1]; 2.22 µM in test [2]; 5.24 µM in test [3]; 4.57 µM in test [4]; 9.2 µM in [5]; 3.07 µM in test [6]. In addition, the GI50 in test [7] is 4.47 µM; in [8] it was 4.25 µM; in test [9] it was 3.11 µM; in test [10], 3.9 µM. In addition, the TGI worked out at 23.7 µM in [1]; 10.6 µM in test [2]; 18.4 µM in [3]; 19.8 µM in [4]; 22.9 µM in test [5]; 16.6 µM in test [6]. The TGI in test [7] came out at 17.2 µM; in [8] it was 17.6 µM; in test [9], 11.4 µM; in [10], 16.4 µM.

For `Cc1ccc(-c2nc3nc(-c4ccccc4)nc(N4CCNCC4)c3o2)cc1`, the GI50 in test [1] is 1.47 µM; in [2], 0.495 µM; in test [3], 1.48 µM; in test [4] it was 1.48 µM; in [5] it was 0.242 µM; in test [6], 0.177 µM. Also, the GI50 in [7] is 1.81 µM; in [8], 1.58 µM; in [9] it was 0.23 µM; in test [10], 0.832 µM. Moreover, the TGI worked out at 2.97 µM in test [1]; 1.07 µM in [2]; 2.98 µM in test [3]; 3.13 µM in test [4]; 0.567 µM in test [5]; 0.323 µM in test [6]. Besides, the TGI in test [7] was 3.59 µM; in test [8], 3.04 µM; in test [9] it was 0.54 µM; in test [10] it was 2.6 µM.

Take `COc1cccc(-c2cc3c4c(nc5ccccc53)C(=O)c3cccnc3-c4n2)c1`: the GI50 in [1] was 14.1 µM; in test [2], 2.21 µM; in test [3], 4.2 µM; in test [4], 4.3 µM; in test [5] it was 2.49 µM; in test [6] it was 2.31 µM. Further, the GI50 in test [7] was 0.822 µM; in test [8], 1.18 µM; in test [9] it was 1.32 µM; in test [10], 2.26 µM. The TGI is 29.5 µM in test [1]; 9.82 µM in test [2]; 12.3 µM in test [3]; 19.8 µM in test [4]; 6.19 µM in test [5]; above 100 µM in test [6]. For the same compound, the TGI was determined as 3.32 µM in test [7], 2.57 µM in [8], 3.88 µM in [9] and 5.99 µM in test [10].

Regarding `COc1cc([N+](=O)[O-])c(OC)cc1-c1nc2sccn2c1/C=N/N=C(N)N`, the GI50 in test [1] was 27.4 µM; in [2], 12.8 µM; in test [3], 13.6 µM; in [4] it was 19.3 µM; in test [5] it was 82.1 µM; in test [6], 17.9 µM. Moreover, the GI50 is 11 µM in [7], 15.5 µM in test [8], 15 µM in [9] and 22.2 µM in test [10]. Besides, the TGI was 66.5 µM in [1]; 28.8 µM in [2]; 46.9 µM in test [3]; 45.4 µM in [4]; above 100 µM in test [5]; 41.5 µM in test [6]. Further, the TGI in test [7] is 40.7 µM; in test [8], 52.3 µM; in test [9], above 100 µM; in test [10] it was above 100 µM.
